Data reported in patent US9085608B2, “Treatment of biofilms” (LYTIX BIOPHARMA AS, priority 2008, dated 2015).
Values after ≈ are worked out from the molar mass of the structure shown. “Also recorded” adds a separate entry of the source. Residues, ends and D or L forms follow the SMILES beside them. *: point of attachment. NHPhenethyl = c1ccc(CCN*)cc1

Tests used:
PIA 90 S. aureus = type: cell-based; conditions: planctonic
From the text: (§1) Minimum Inhibitory Concentration (MIC) on Planctonic Bacteria

8-16 S. epidermidis = type: cell-based; conditions: planctonic
From the text: as §1

51-07 S. haemolyticus = type: cell-based; conditions: planctonic
From the text: as §1

51-03 S. haemolyticus = type: cell-based; conditions: planctonic
From the text: as §1

42-77 S. epidermidis = type: cell-based; conditions: planctonic
From the text: as §1

PIA 9 S. aureus = type: cell-based; conditions: planctonic
From the text: as §1

[1] = test system: 51-07 S. haemolyticus biofilm; assay: MBIC, biofilm survival rate by Alamar blue, Example 3; type: cell-based; conditions: 24 h
Procedure: (§2) Biofilm formation was induced in 96-well flat bottom microtitre plates (Nunclon Surface, NUNC). First, overnight cultures were diluted 1:100 in MHIIB (S. epidermidis and S. haemolyticus) or tryptic soy broth (TSB) with 5% glucose and 5% NaCl (S. aureus). 200 ml of this bacterial suspension (10^7 cfu/ml) was added to each well and incubated for 24 h at 37° C. After 24 h the wells were carefully washed twice with phosphate-buffered saline (PBS) to remove planktonic bacteria. The washing procedure was carefully evaluated by measuring metabolic activity of the PBS with the Alamar blue method, described in detail below.
(§3) The washed biofilms were subjected to treatment with the Compounds at different concentrations.
(§4) Trifluoroacetate salts of the compounds were dissolved in sterile water and diluted to 5 mg/L, 50 mg/L and 500 mg/L in MHIIB. […] of the Compounds, in different concentrations, were added to each well and incubated for 24 h at 37° C. Positive controls were untreated biofilms only added 200 MHIIB. Negative controls were only 200 μl MHIIB, with no bacteria added.
(§5) The metabolic activity of the biofilm was quantified with a slightly modified method previously described by Pettit et al. Antimicrob. Agents Chemother. 2005; 49: 2612-7. Briefly, after the 24 h incubation with antimicrobial agents the wells were again washed twice with PBS and then added […] MHIIB with 5% Alamar blue (AB; Biosource, Camarillo, Calif., USA). AB is a redox indicator which both fluoresces and changes colour in response to chemical reduction. The extent of reduction is a reflection of bacterial cell viability. After 1 h incubation at 37° C., absorbance was recorded at 570 and 600 nm using Versamax tuneable microplate reader (Molecular Devices, Sunnyvale, Calif., USA). All assays were performed 3 times with 8 parallels. The highest and lowest value of each run was excluded from the analyses, and the remaining 18 values were averaged.

[2] = test system: 51-03 S. haemolyticus biofilm; assay: as above; type: cell-based; conditions: 24 h
Procedure: as §2, §3, §4, §5

[3] = test system: 42-77 S. epidermidis biofilm; assay: as above; type: cell-based; conditions: 24 h
Procedure: as §2, §3, §4, §5

[4] = test system: 8-16 S. epidermidis biofilm; assay: as above; type: cell-based; conditions: 24 h
Procedure: as §2, §3, §4, §5

PIA 9 S. aureus biofilm = assay: as above; type: cell-based; conditions: 24 h
Procedure: as §2, §3, §4, §5

PIA 90 S. aureus biofilm = assay: as above; type: cell-based; conditions: 24 h
Procedure: as §2, §3, §4, §5

[5] = test system: 24 h old biofilm of 6 different staphylococcal strains; assay: Biofilm metabolic activity, Alamar blue reduction; type: cell-based, S. epidermidis, S. haemolyticus, S. aureus; conditions: 50 mg/L; mature biofilms from 4 out of the 6 strains tested
Procedure: Biofilm formation was induced in 96-well flat bottom microtitre plates (Nunclon Surface, NUNC, Roskilde, Denmark). First, overnight cultures were diluted 1:100 in MHIIB (S. epidermidis and S. haemolyticus) or tryptic soy broth (TSB) with 5% glucose and 5% NaCl (S. aureus). Two hundred of this bacterial suspension (10^7 cfu/ml) was added to each well and incubated for 24 h at 37° C. After 24 h the wells were carefully washed twice with phosphate-buffered saline (PBS) to remove planktonic bacteria. The washing procedure was evaluated by measuring metabolic activity of the PBS with the Alamar blue method, described in detail below.
The washed biofilms were subjected to treatment with antibiotics or SAMPs at different concentrations. Stock solutions of the tetracycline (Sigma Aldrich), vancomycin (Alpharma) and linezolid (Pfizer) were diluted in MHIIB to 5 mg/L, 50 mg/L and 500 mg/L, and rifampicin (Sigma Aldrich) was diluted in MHIIB to 0.01 mg/L, 0.1 mg/L and 1 mg/L. Trifluoroacetate salts of the SAMPs were dissolved in sterile water and diluted to 5 mg/L, 50 mg/L and 500 mg/L in MHIIB. 200 μl of antibiotics or SAMPs, in different concentrations, were added to each well and incubated for 24 h at 37° C. Positive controls were untreated biofilms only added 200 μl MHIIB. Negative controls were only 200 μl MHIIB, with no bacteria added.
We quantified the metabolic activity of biofilm with a slightly modified method previously described by Pettit et al. in Antimicrob. […] Briefly, the wells were washed twice with PBS. We then added 250 μl MHIIB with 5% Alamar blue (AB; Invitrogen, Carlsbad, Calif., USA) to each well. AB is a redox indicator which both fluoresces and changes colour in response to chemical reduction. The extent of reduction is a reflection of bacterial cell viability. After 1 h incubation at 37° C., absorbance was recorded at 570 and 600 nm using Versamax tuneable microplate reader (Molecular Devices, Sunnyvale, Calif., USA). […] The highest and lowest value of each run was excluded from the analyses, and the remaining 18 values were averaged.
We defined two levels of antimicrobial suppression of metabolic activity.

S. aureus PIA9 biofilm = assay: Biofilm metabolic activity, Alamar blue reduction; type: cell-based, Staphylococcus aureus
Procedure: as §2, with “NUNC, Roskilde, Denmark).” for “NUNC).”, “Two hundred” for “200 ml”, “was” for “was carefully”, “below. […]” for “below.”
We quantified the metabolic activity of biofilm with a slightly modified method previously described by Pettit et al. in Antimicrob. […] After 1 h incubation at 37° C., absorbance was recorded at 570 and 600 nm using Versamax tuneable microplate reader (Molecular Devices, Sunnyvale, Calif., USA). […]
The percent reduction of AB was calculated according to the manufacturer's formula (Invitrogen, Carlsbad, USA). We calculated mean and standard deviations (SD) of all repeated measurements. Pearson's two-tailed correlation between the AB method and the CV method (FIG. 2) was calculated on averaged data from all 6 staphylococcal strains. […]

[6] = test system: Staphylococcus aureus PIA 9; assay: microbe, parasite or virus in culture; conditions: Staphylococcus aureus, PIA9
Procedure: (§6) Bacteria were grown overnight at 37° C. in cation adjusted Mueller-Hinton II Broth (MHIIB).
(§7) We determined the MICs of oxacillin, gentamicin, tetracycline, vancomycin and linezolid using E-test (AB Biodisk, Solna, Sweden) and MICs of rifampicin using broth microdilution assay. Breakpoints were interpreted according to EUCAST criteria. […] All 3 SAMPs are tripeptides with two arginine residues providing their cationic moieties (FIG. 1). The lipophilic bulk is provided by a modified tryptophane derivate. […] The molecular weights of the SAMPs are in the range of 700-800 Dalton.

[7] = test system: Staphylococcus epidermidis RP62A ATCC 35984; assay: microbe, parasite or virus in culture; conditions: Staphylococcus epidermidis, ATCC35984
Procedure: as §6, §7

[8] = test system: Staphylococcus epidermidis TUH 08-16; assay: microbe, parasite or virus in culture; conditions: Staphylococcus epidermidis, TUH0816
Procedure: as §6, §7

[9] = test system: Staphylococcus haemolyticus TUH 51-03; assay: microbe, parasite or virus in culture; conditions: Staphylococcus haemolyticus, TUH5103
Procedure: as §6, §7

[10] = test system: Staphylococcus haemolyticus TUH 51-07; assay: microbe, parasite or virus in culture; conditions: Staphylococcus haemolyticus, TUH5107
Procedure: as §6, §7

[11] = test system: Staphylococcus aureus PIA90; assay: microbe, parasite or virus in culture; conditions: Staphylococcus aureus, PIA90
Procedure: as §6, §7

[12] = test system: S. haemolyticus TUH 51-07 biofilm; assay: Biofilm imaging, LIVE/DEAD staining and confocal laser scanning microscopy; type: cell-based, Staphylococcus haemolyticus; conditions: 50 mg/L, 24 h treatment
Procedure: One ml aliquots of MHIIB-diluted overnight culture was used to grow S. haemolyticus TUH 51-07 biofilm on plastic coverslides (Thermanox, cellculture treated on one side, NUNC, Roskilde, Denmark) in 24-well dishes (Falcon 3047, Becton Dickinson, NJ, USA) for 24 h. The coverslides were then washed carefully with PBS, moved to a new plate and treated for 24 h with tetracycline 50 mg/L and 500 mg/L, vancomycin 50 mg/L and 500 mg/L, or Compound A 50 mg/L and 500 mg/L. The coverslides were washed again with […] and stained with a LIVE/DEAD kit (Invitrogen Molecular Probes, Eugene, Oreg., USA) following the manufacturer's instructions. This stain contains SYTO 9 (green fluorescent) and propidium iodide (PI; red fluorescent), both binding to DNA. When used alone, the SYTO 9 generally stains all bacteria in a population; both those with intact and those with damaged membranes. In contrast, PI penetrates only bacteria with damaged membranes, causing a reduction in the SYTO 9 stain green fluorescence when both dyes are present. We examined treated and untreated biofilms with a Leica TCS SP5 (Leica Microsystems CMS Gmbh, Mannheim, Germany) confocal laser scanning microscope (CLSM). Images were obtained using a 63×1.2 NA HCX PL APO water immersion lens. For detection of SYTO9 (green channel), we used the 488 nm line of the argon laser and a detection bandwidth of 495-515 nm. For PI detection (red channel), we used the 561 nm line and a detection bandwidth of 615-660 nm. The two fluorescent-signals were collected sequentially at 400 Hz. Image analyses and export was performed in Leica LAS AF version 1.8.2.

[13] = test system: six staphylococcal strains (2 S. epidermidis, 2 S. haemolyticus and 2 S. aureus); assay: Susceptibility testing under planktonic growth condition, EUCAST breakpoints; type: cell-based; conditions: all 6 strains; EUCAST criteria
Procedure: The six staphylococcal strains (2 S. epidermidis, 2 S. haemolyticus and 2 S. aureus) used in this study were selected based on their previously known biofilm forming capacity (Table 1).
as §6
We determined the MICs of oxacillin, gentamicin, tetracycline, vancomycin and linezolid using E-test (AB Biodisk, Solna, Sweden) and MICs of rifampicin using broth microdilution assay. Breakpoints were interpreted according to EUCAST criteria. We selected 3 different SAMPs (Compounds A, B and C; Lytix Biopharma, Tromsø, Norway—see FIG. 1) based on previously known antimicrobial activities, and determined their exact MICs with broth microdilution assay. All 3 SAMPs are tripeptides with two arginine residues providing their cationic moieties (FIG. 1). The lipophilic bulk is provided by a modified tryptophane derivate. The difference between the compounds is the size of the C-terminal modification; Compound A has the smallest and Compound B has the largest C-terminal modification (FIG. 1). The molecular weights of the SAMPs are in the range of 700-800 Dalton.

## N=C(N)NCCC[C@H](NC(=O)[C@H](Cc1c[nH]c2ccccc12)NC(=O)[C@H](Cc1c[nH]c2ccccc12)NC(=O)[C@H](CCCNC(=N)N)NC(=O)[C@@H](N)Cc1c[nH]c2ccccc12)C(=O)NCCc1ccccc1 [ME 172, W-R-W-W-R-NH-CH2CH2Ph] (H-WRWWR-NHPhenethyl)
PIA 90 S. aureus
  MIC: 32 µg/mL (≈ 32.3 µM)
8-16 S. epidermidis
  MIC: 16 µg/mL (≈ 16.1 µM)
51-07 S. haemolyticus
  MIC: 8 µg/mL (≈ 8.06 µM)
51-03 S. haemolyticus
  MIC: 8 µg/mL (≈ 8.06 µM)
42-77 S. epidermidis
  MIC: 16 µg/mL (≈ 16.1 µM)
PIA 9 S. aureus
  MIC: 16 µg/mL (≈ 16.1 µM)
[1]; 5 μg/ml
  MBIC measured as survival rate: 100%
[1]; 50 μg/ml
  MBIC measured as survival rate: 41%
[1]; 500 μg/ml
  MBIC measured as survival rate: 12%
[2]; 5 μg/ml
  MBIC measured as survival rate: 100%
[2]; 50 μg/ml
  MBIC measured as survival rate: 6%
[2]; 500 μg/ml
  MBIC measured as survival rate: 8%
[3]; 5 μg/ml
  MBIC measured as survival rate: 100%
[3]; 50 μg/ml
  MBIC measured as survival rate: 85%
[3]; 500 μg/ml
  MBIC measured as survival rate: 10%
[4]; 5 μg/ml
  MBIC measured as survival rate: 100%
[4]; 50 μg/ml
  MBIC measured as survival rate: 80%
[4]; 500 μg/ml
  MBIC measured as survival rate: 20%
PIA 9 S. aureus biofilm; 5 μg/ml
  MBIC measured as survival rate: 100%
PIA 9 S. aureus biofilm; 50 μg/ml
  MBIC measured as survival rate: 100%
PIA 9 S. aureus biofilm; 500 μg/ml
  MBIC measured as survival rate: 18%
PIA 90 S. aureus biofilm; 5 μg/ml
  MBIC measured as survival rate: 100%
PIA 90 S. aureus biofilm; 50 μg/ml
  MBIC measured as survival rate: 55%
PIA 90 S. aureus biofilm; 500 μg/ml
  MBIC measured as survival rate: 10%

## CN[C@H](CC(C)C)C(=O)N[C@H]1C(=O)N[C@@H](CC(N)=O)C(=O)N[C@H]2C(=O)N[C@H]3C(=O)N[C@H](C(=O)N[C@H](C(=O)O)c4cc(O)cc(O)c4-c4cc3ccc4O)[C@H](O)c3ccc(c(Cl)c3)Oc3cc2cc(c3O[C@@H]2O[C@H](CO)[C@@H](O)[C@H](O)[C@H]2O[C@H]2C[C@](C)(N)[C@H](O)[C@H](C)O2)Oc2ccc(cc2Cl)[C@H]1O [VAN, vancomycin]
[5]
  suppression of metabolic activity (AB reduction): strong suppression (A strong suppression was obtained if an agent, after adjusting for the negative control, at a certain concentration caused 75% reduction of AB compared to positive control)
S. aureus PIA9 biofilm
  resistance of biofilm: completely resistant
[6]
  MIC: 2 µg/mL (≈ 1.38 µM)
[7]
  MIC: 4 µg/mL (≈ 2.76 µM)
[8]
  MIC: 2 µg/mL (≈ 1.38 µM)
[9]
  MIC: 4 µg/mL (≈ 2.76 µM)
[10]
  MIC: 2 µg/mL (≈ 1.38 µM)
[11]
  MIC: 2 µg/mL (≈ 1.38 µM)
[12]
  LIVE/DEAD staining of biofilm cells (CLSM): predominantly green cells; also recorded: most bacteria were not killed
[13]
  susceptibility under planktonic growth: susceptible; also recorded: sensitive
